The values that follow come from patent US20210170122A1, “METHOD OF WEIGHT REGULATION USING NEBULIZED NICOTINE” (priority 2016, published 2021).

The procedure of data set [1]: The nicotine solution used for nicotine treatment contains 0.05 milligram of nicotine (free base) per milliliter of solution ([…]). The active mesh nebulizer activates the active mesh for a single inhalation period of 3 seconds (0.05 minute) to deliver the dose of nicotine to the patient.
The nicotine solution used for nicotine treatment contains 0.5 milligram of nicotine (free base) per milliliter of solution (0.5 mg/ml). The active mesh nebulizer activates the active mesh for a single inhalation period of 3 seconds (0.05 minute) to deliver the dose of nicotine to the patient.
The nicotine solution used for nicotine treatment contains 0.01 milligram of nicotine (free base) per milliliter of solution (0.01 mg/ml). The active mesh nebulizer activates the active mesh for a single inhalation period of 3 seconds (0.05 minute) to deliver the dose of nicotine to the patient.
The hypothetical patient receives the nicotine dose at a regular interval (e.g., about every 2 hours) for a weight monitoring period (e.g., about 2 months in the present hypothetical example), after which the hypothetical patient is weighed to determine the effect of the nebulized nicotine solution on the hypothetical patient's weight.

This is another data set of the same source.

Molecules are shown by their SMILES.

With `CN1CCCC1c1cccnc1` (stereo not shown) [nicotine], the “management of nicotine cravings” value in data set [1] (Example 1: patient, 2-pack per day smoker, 0.0005 mg dose (0.2 ml/min, 0.05 mg/ml, 3 seconds) by inhalation approximately every two hours) is “sufficient to manage nicotine cravings”. In data set [1] (Example 1: patient, 2-pack per day smoker, 0.0005 mg dose by inhalation approximately every two hours), the “patient's weight versus weight when smoking cigarettes” value is on record as “holding the patient's weight at the same level as when the patient was smoking cigarettes”. In data set [1] (Example 2: patient, 2-pack per day smoker, 0.005 mg dose (0.2 ml/min, 0.5 mg/ml, 3 seconds) by inhalation), the “lethargy, or lassitude” value was “sufficiently large to produce lethargy, or lassitude”. Further, the “effect on patient's weight” value in data set [1] (Example 3: hypothetical patient, 0.01 mg/ml solution, 0.2 ml/min, 3 seconds, about every 2 hours for about 2 months) was “has lost weight”. Also, the “period with no desire for further nicotine inhalation” value (0.5 mg nicotine/ml (0.05%), single inhalation plume, 0.2 ml/minute for 10 seconds, according to theory and belief) was in the range of 2 to 3 h. Further, the “period of nicotine satiety (no desire for further nicotine inhalation)” value (1/40 mg nicotine/ml (0.025% nicotine), 0.2 ml/min, nebulization time 10 seconds, according to theory and belief) is on record as “at least two hours”. The “time to brain response” value (in vivo) was “less than 10 seconds”.
